Where a name gives a salt, the structure may show the parent alone.
Experiments:
SKOV cells lysate = assay: In vitro evaluation of cassette: ester linker cleavage by cell lysate; assay type: cell-based; settings: 20 minutes 37° C., PBS pH 7.4, 1 mM NADH; 450 nm excitation
Procedure: (§1) Cy5Q-Cascade blue cassette (0.8 mM in acetate buffer pH 5.0) was diluted to […] in PBS pH 7.4 containing 1 mM NADH. A cell lysate was prepared from 2×10^7 SKOV cells by re-suspension of scraped cells in 5 ml PBS at 4° C. and repeated passage through a 25 gauge syringe needle. Aliquots (1 ml) of Cy5Q-Cascade blue were incubated with 500 μl of cell lysate or PBS for 20 minutes at 37° C. Following incubation 100 μl of a 1 ng/μl solution of E. coli B nitroreductase was added to one sample and incubation continued for 5 minutes. Aliquots ([…]) were then dispensed in quadruplicate from each sample to a 96 well plate for measurement of fluorescence on a Cytofluor plate reader using 450 nm excitation/530 nm emission filters for cascade blue and 610 nm excitation/670 nm emission for Cy5.

E. coli B nitroreductase = E. coli B nitroreductase (Escherichia coli, UniProt P38489); assay: In vitro evaluation of cassette: reduction by nitroreductase; assay type: biochemical; settings: after lysate incubation, 5 minutes with nitroreductase; 610 nm excitation
Procedure: as §1

[1] = target: T1, Nitroreductase expressing cells (Escherichia coli, UniProt P38489); assay: Cellular nitroreductase activity in living cells with cell permeable substrates (plate reader); assay type: cell-based; settings: 37° C.
T1 construct: expressed in transfected cells
Procedure: Cy3Qee (Formula IIIa) and Cy5Qee (Formula IIIb) were evaluated as cell permeable fluorescence substrates for nitroreductase measurement in living cells. Nitroreductase expressing cells and control cells were cultured at 10,000 cells/well in 96 well plates in tissue culture medium containing 10% foetal calf serum and incubated at 37° C. in the presence of 10 μM Cy3Qee or 30 μM Cy5Qee.

[2] = target: T1, Nitroreductase expressing cells; assay: Cellular nitroreductase activity in living cells by flow cytometry; assay type: cell-based; settings: 30 μM Cy3Qee, 2 hours 37° C.; 488 nm laser excitation, 585/42 nm emission
Procedure: Nitroreductase expressing cells and control cells were incubated for 2 hours at 37° C. in tissue culture media containing 30 μM Cy3Qee. Following incubation cells were washed with phosphate buffered saline and trypsinised to produce cell suspensions for flow cytometry.
Cells were analysed using a FACScalibur flow cytometer (Becton Dickinson) using 488 nm laser excitation and a 585/42 nm emission filter. Results (FIG. 12) show a significant increase in fluorescence in nitroreductase expressing cells (mean fluorescence 169.9) compared with control cells (mean fluorescence 18.2).

[3] = 10 μM Cy3Qee, 530/25 nm excitation, 580/50 nm emission
[4] = 30 μM Cy5Qee, 610/20 nm excitation, 670/40 nm emission

T1 sequence (P38489 whole entry): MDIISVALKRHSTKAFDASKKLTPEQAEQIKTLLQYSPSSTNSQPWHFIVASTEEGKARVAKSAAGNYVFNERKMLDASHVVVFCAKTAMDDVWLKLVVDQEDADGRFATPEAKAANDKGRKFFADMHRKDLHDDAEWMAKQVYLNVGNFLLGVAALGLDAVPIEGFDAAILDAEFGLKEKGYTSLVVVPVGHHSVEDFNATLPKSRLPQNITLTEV
Chain of E. coli B nitroreductase (P38489 whole entry): as above

SMILES: CC1(C)C(/C=C/C=C/C=C2/N(Cc3cc([N+](=O)[O-])cc([N+](=O)[O-])c3)c3ccc(S(=O)(=O)O)cc3C2(C)C)=[N+](CCCCCC(=O)Oc2cc(S(=O)(=O)O)c3ccc4c(S(=O)(=O)[O-])cc(S(=O)(=O)O)c5ccc2c3c45)c2ccc(S(=O)(=O)O)cc21 [Cy5Q-Cascade blue cassette]
- fluorescence emission at 530 nm (Cascade Blue) in the presence of cell lysate (SKOV cells lysate): increase of fluorescence emission
- fluorescence emission at 670 nm (Cy5) when nitroreductase enzyme is present (E. coli B nitroreductase): increase in fluorescence emission

SMILES: CCOC(=O)Cc1ccc2c(c1)C(C)(C)C(/C=C/C=C1/N(C)c3ccc(CC(=O)OCC)cc3C1(C)C)=[N+]2Cc1cc([N+](=O)[O-])cc([N+](=O)[O-])c1 [Cy3Qee]
- fluorescence in control cells [1, 3]: minimal changes in fluorescence
- fluorescence in nitroreductase expressing cells [1, 3]: significant time dependent increase in fluorescence
- mean fluorescence, control cells [2]: 18.2
- mean fluorescence, nitroreductase expressing cells [2]: 169.9

SMILES: CCOC(=O)Cc1ccc2c(c1)C(C)(C)C(/C=C/C=C/C=C1/N(C)c3ccc(CC(=O)OCC)cc3C1(C)C)=[N+]2Cc1cc([N+](=O)[O-])cc([N+](=O)[O-])c1 [Cy5Qee, 1-(3,5-dinitrobenzyl)-5-(2-ethoxy-2-oxoethyl)-2-{(1E,3E)-5-[6-(2-ethoxy-2-oxoethyl)-1,1,3-trimethyl-1,3-dihydro-2H-indol-2-ylidene]-1,3-pentadienyl}-3,3-dimethyl-3H-indoluim Salt]
- fluorescence in control cells [1, 4]: minimal changes in fluorescence
- fluorescence in nitroreductase expressing cells [1, 4]: significant time dependent increase in fluorescence

From patent publication US7662973B2, “Fluorescent detection method and reagent” (GE Healthcare UK Limited, priority 2000, dated 2010)
